The text below walks through data of patent publication US8987195B2 (priority 2012, dated 2015).

Where two headings read alike, the source gives them in different places.

The target of experiment [1] is HCV NS3/4A protease genotype 1b (Hepatitis C virus genotype 1b, UniProt P26663). Put plainly: HCV NS3/4A protease time-resolved fluorescence (TRF) assay, Ki against genotype 1b. The format is biochemical. Summed up:
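NS3/4A enzyme was preincubated 30 min with inhibitor in 50 mM HEPES pH 7.5, 150 mM NaCl, 15% glycerol, 0.15% Triton X-100, 10 mM DTT, 0.1% PEG 8000; 25 nM europium TRF peptide substrate added, 2.5 h at room temperature. Enzyme: 0.2 nM (1b), 0.4 nM (A156T), 0.025 nM (3a). Ki from IC50 via Cheng-Prusoff.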

For the next experiment, the system named is HCV genotype 1b replicon. The experiment is described as follows: HCV replicon assay, genotype 1b replicon EC50. The format is cell-based, Hepatitis C virus. Particulars: read-out: EC50 [gt-1b]. In a few lines:
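Stable neomycin-selected genotype 1b replicon cells, some carrying luciferase:Neo^r fusion, plated without G418 with a compound dilution series and incubated 24-48 h. Read-out was RNA (^32P-probe protection or TaqMan, normalized to cyclophilin A) or luciferase activity. EC50 from four-parameter fit as percent of DMSO control.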
On the technique in general: A replicon is a self-replicating genome or part of one, used to study replication in cells.

Where [2] appears, read: IC50 [gt-1b], NS3/4A protease TRF assay, genotype 1b enzyme 0.2 nM.
The mark [3] stands for this setting: Hepatitis C virus, HCV replicon, genotype 1b.
[4] abbreviates: IC50 [gt-1b] (nM), NS3/4A genotype 1b, enzyme 0.2 nM.
[5] abbreviates: Hepatitis C virus, genotype 1b replicon.
Setting [6] is: IC50 [gt-1b], NS3/4A protease TRF assay, genotype 1b enzyme 0.2 nM, K+ salt.

Broadly, the IC50 is the concentration at which inhibition is half-maximal. As a reminder, the EC50 is the concentration giving half of the maximal effect. In turn, `Cc1ccc2nc(C(F)(F)F)c3c(c2c1)CC[C@]1(C[C@H]2C(=O)N[C@]4(C(=O)NS(=O)(=O)C5(C)CC5)C[C@H]4/C=C\CCCCC[C@H](NC(=O)OC(C)(C)C)C(=O)N2C1)O3` [Example 389, tert-butyl [(2R,6S,12Z,13aS,14aR,16aS)-9′-methyl-14a-{[(1-methylcyclopropyl)sulfonyl]carbamoyl}-5,16-dioxo-5′-(trifluoromethyl)-1,1′,2′,5,6,7,8,9,10,11,13a,14,14a,15,16,16a-hexadecahydrospiro[cyclopropa[e]pyrrolo[1,2-a][1,4]diazacyclopentadecine-2,3′-pyrano[2,3-c]quinolin]-6-yl]carbamate] returned an IC50 in experiment [1] (setting [2]) of 0.011 nM. Moreover, in the experiment with HCV genotype 1b replicon (setting [3]), the EC50 was 2.61 nM.
Regarding `COc1ccc2nc(C)c3c(c2c1)CC[C@]1(C[C@H]2C(=O)N[C@]4(C(=O)NS(=O)(=O)C5(C)CC5)C[C@H]4CCCCCCC[C@H](NC(=O)OC(C)(C)C)C(=O)N2C1)O3` [Example 34, tert-Butyl ((2R,6S,13aR,14aR,16aS)-9′-methoxy-5′-methyl-14a-(((1-methylcyclopropyl)sulfonyl)carbamoyl)-5,16-dioxo-1′,2′,3,5,6,7,8,9,10,11,12,13,13a,14,14a,15, 16,16a-octadecahydro-1H-spiro[cyclopropa[e]pyrrolo[1,2-a][1,4]diazacyclopentadecine-2,3′-pyrano[2,3-c]quinolin]-6-yl)carbamate], in experiment [1] (setting [4]), half-maximal inhibition (IC50) was put at 0.013 nM. The EC50 in the experiment on HCV genotype 1b replicon (setting [5]) worked out at 1.79 nM.
Take `COc1ccc2nc(C(C)C)c3c(c2c1)C(F)(F)C[C@]1(C[C@H]2C(=O)N[C@]4(C(=O)NS(=O)(=O)C5(C)CC5)C[C@H]4/C=C\CCCCC[C@H](NC(=O)OCC(C)C)C(=O)N2C1)O3` [Example 211, 2-methylpropyl [(2S,6S,12Z,13aS,14aR,16aS)-1′,1′-difluoro-9′-methoxy-14a-{[(1-methylcyclopropyl)sulfonyl]carbamoyl}-5,16-dioxo-5′-(propan-2-yl)-1,1′,2′,5,6,7,8,9,10,11,13a,14,14a,15,16,16a-hexadecahydrospiro[cyclopropa[e]pyrrolo[1,2-a][1,4]diazacyclopentadecine-2,3′-pyrano[2,3-c]quinolin]-6-yl]carbamate]: the IC50 in experiment [1] (setting [4]) stood at 0.006 nM. In addition, the EC50 in the experiment with HCV genotype 1b replicon (setting [5]) was found to be 3.54 nM.
Regarding `CCc1nc2ccc(OC)cc2c2c1O[C@]1(CC2)C[C@H]2C(=O)N[C@]3(C(=O)NS(=O)(=O)C4(C)CC4)C[C@H]3/C=C\CCCCC[C@H](NC(=O)OCC(C)C)C(=O)N2C1` [Example 337, 2-methylpropyl [(2R,6S,12Z,13aS,14aR,16aS)-5′-ethyl-9′-methoxy-14a-{[(1-methylcyclopropyl)sulfonyl]carbamoyl}-5,16-dioxo-1,1′,2′,5,6,7,8,9,10,11,13a,14,14a,15,16,16a-hexadecahydrospiro[cyclopropa[e]pyrrolo[1,2-a][1,4]diazacyclopentadecine-2,3′-pyrano[2,3-c]quinolin]-6-yl]carbamate], half-maximal inhibition in experiment [1] (setting [4]) (IC50) required 0.009 nM. In addition, in the experiment with HCV genotype 1b replicon (setting [5]), the EC50 is 2.37 nM.
`Cc1ccc2nc(C)c3c(c2c1)CC[C@]1(C[C@H]2C(=O)N[C@]4(C(=O)NS(=O)(=O)C5CC5)C[C@H]4/C=C\CCCCC[C@H](NC(=O)OC(C)(C)C)C(=O)N2C1)O3` [Example 87, tert-butyl {(2R,6S,12Z,13aS,14aR,16aS)-14a-[(cyclopropylsulfonyl)carbamoyl]-5′,9′-dimethyl-5,16-dioxo-1,1′,2′,5,6,7,8,9,10,11,13a,14,14a,15,16,16a-hexadecahydrospiro[cyclopropa[e]pyrrolo[1,2-a][1,4]diazacyclopentadecine-2,3′-pyrano[2,3-c]quinolin]-6-yl}carbamate] gave an IC50 in experiment [1] (setting [4]) of 0.01 nM. Further, the EC50 in the experiment on HCV genotype 1b replicon (setting [5]) came out at 5.87 nM.
Take `Cc1nc2ccccc2c2c1O[C@]1(CC2)C[C@H]2C(=O)N[C@]3(C(=O)NS(=O)(=O)C4(C)CC4)C[C@H]3/C=C\CCCCC[C@H](NC(=O)OC(C)(C)C(F)(F)C(F)(F)F)C(=O)N2C1` [Example 300, 3,3,4,4,4-pentafluoro-2-methylbutan-2-yl [(2R,6S,12Z,13aS,14aR,16aS)-5′-methyl-14a-{[(1-methylcyclopropyl)sulfonyl]carbamoyl}-5,16-dioxo-1,1′,2′,5,6,7,8,9,10,11,13a,14,14a,15,16,16a-hexadecahydrospiro[cyclopropa[e]pyrrolo[1,2-a][1,4]diazacyclopentadecine-2,3′-pyrano[2,3-c]quinolin]-6-yl]carbamate]: the IC50 in experiment [1] (setting [4]) stood at 0.021 nM. Also, the EC50 in the experiment with HCV genotype 1b replicon (setting [5]) is 3.12 nM.
As for `COc1ccc2nc(C3CC3)c3c(c2c1)CC[C@]1(C[C@H]2C(=O)N[C@]4(C(=O)NS(=O)(=O)C5(C)CC5)C[C@H]4/C=C\CCCCC[C@H](NC(=O)O[C@H](C)C(C)C)C(=O)N2C1)O3` [Example 413, (2R)-3-methylbutan-2-yl [(2R,6S,12Z,13aS,14aR,16aS)-5′-cyclopropyl-9′-methoxy-14a-{[(1-methylcyclopropyl)sulfonyl]carbamoyl}-5,16-dioxo-1,1′,2′,5,6,7,8,9,10,11,13a,14,14a,15,16,16a-hexadecahydrospiro[cyclopropa[e]pyrrolo[1,2-a][1,4]diazacyclopentadecine-2,3′-pyrano[2,3-c]quinolin]-6-yl]carbamate], the IC50 in experiment [1] (setting [6]) worked out at 0.021 nM. For the same molecule, the EC50 with HCV genotype 1b replicon (Hepatitis C virus, HCV replicon, genotype 1b, K+ salt) was found to be 2.53 nM.
`COc1ccc2nc(C3CC3)c3c(c2c1)CC[C@]1(C[C@H]2C(=O)N[C@]4(C(=O)NS(=O)(=O)C5(C)CC5)C[C@H]4/C=C\CCCCC[C@H](NC(=O)NC4CCCC4)C(=O)N2C1)O3` [Example 93, (2R,6S,12Z,13aS,14aR,16aS)-6-[(cyclopentylcarbamoyl)amino]-5′-cyclopropyl-9′-methoxy-N-[(1-methylcyclopropyl)sulfonyl]-5,16-dioxo-1,1′,2′,6,7,8,9,10,11,13a,14,15,16,16a-tetradecahydrospiro[cyclopropa[e]pyrrolo[1,2-a][1,4]diazacyclopentadecine-2,3′-pyrano[2,3-c]quinoline]-14a(5H)-carboxamide] displayed an IC50 in experiment [1] (setting [4]) of 0.007 nM. Also, the EC50 in the experiment on HCV genotype 1b replicon (setting [5]) was determined as 3.4 nM.
As to `COc1ccc2nc(C)c3c(c2c1)CC[C@]1(C[C@H]2C(=O)N[C@]4(C(=O)NS(=O)(=O)C5(C)CC5)C[C@H]4/C=C\CCCCC[C@H](NC(=O)OC(C(C)C)C(F)(F)F)C(=O)N2C1)O3` (stereo partly drawn) [Example 408, 1,1,1-trifluoro-3-methylbutan-2-yl [(2R,6S,12Z,13aS,14aR,16aS)-9′-methoxy-5′-methyl-14a-{[(1-methylcyclopropyl)sulfonyl]carbamoyl}-5,16-dioxo-1,1′,2′,5,6,7,8,9,10,11,13a,14,14a,15,16,16a-hexadecahydrospiro[cyclopropa[e]pyrrolo[1,2-a][1,4]diazacyclopentadecine-2,3′-pyrano[2,3-c]quinolin]-6-yl]carbamate], the IC50 in experiment [1] (setting [6]) turned out to be 0.023 nM. In addition, in the experiment with HCV genotype 1b replicon (HCV replicon, genotype 1b, K+ salt), the EC50 was determined as 1.23 nM.
For the molecule `COc1ccc2c3c(c(C4CC4)nc2c1)O[C@]1(CC3)C[C@H]2C(=O)N[C@]3(C(=O)NS(=O)(=O)C4(C)CC4)C[C@H]3/C=C\CCCCC[C@H](NC(=O)Oc3ccc(C)cc3)C(=O)N2C1` [Example 274, 4-methylphenyl [(2R,6S,12Z,13aS,14aR,16aS)-5′-cyclopropyl-8′-methoxy-14a-{[(1-methylcyclopropyl)sulfonyl]carbamoyl}-5,16-dioxo-1,1′,2′,5,6,7,8,9,10,11,13a,14,14a,15,16,16a-hexadecahydrospiro[cyclopropa[e]pyrrolo[1,2-a][1,4]diazacyclopentadecine-2,3′-pyrano[2,3-c]quinolin]-6-yl]carbamate], in experiment [1] (IC50 [gt-1b] (nM), NS3/4A genotype 1b, enzyme 0.2 nM, HCOOH salt), the IC50 worked out at 0.832 nM. Further, in the experiment on HCV genotype 1b replicon (Hepatitis C virus, genotype 1b replicon, HCOOH salt), the EC50 stood at 28.3 nM.
With `Cc1nc2cc(F)c(F)cc2c2c1O[C@]1(CC2)C[C@H]2C(=O)N[C@]3(C(=O)NS(=O)(=O)C4(C)CC4)C[C@H]3/C=C\CCCCC[C@H](NC(=O)OC(C)(C)C(F)(F)F)C(=O)N2C1` [Example 381, 1,1,1-trifluoro-2-methylpropan-2-yl [(2R,6S,12Z,13aS,14aR,16aS)-8′,9′-difluoro-5′-methyl-14a-{[(1-methylcyclopropyl)sulfonyl]carbamoyl}-5,16-dioxo-1,1′,2′,5,6,7,8,9,10,11,13a,14,14a,15,16,16a-hexadecahydrospiro[cyclopropa[e]pyrrolo[1,2-a][1,4]diazacyclopentadecine-2,3′-pyrano[2,3-c]quinolin]-6-yl]carbamate], in experiment [1] (setting [2]), 0.04 nM corresponded to half-maximal inhibition (IC50). The 50% effective concentration (EC50) in the experiment with HCV genotype 1b replicon (setting [3]) came to 6.74 nM.
Regarding `CC1(S(=O)(=O)NC(=O)[C@@]23C[C@H]2/C=C\CCCCC[C@H](NC(=O)OC2CCCCC2)C(=O)N2C[C@@]4(CCc5c(c(C6CC6)nc6c(F)cccc56)O4)C[C@H]2C(=O)N3)CC1` [Example 166, cyclohexyl [(2R,6S,12Z,13aS,14aR,16aS)-5′-cyclopropyl-7′-fluoro-14a-{[(1-methylcyclopropyl)sulfonyl]carbamoyl}-5,16-dioxo-1,1′,2′,5,6,7,8,9,10,11,13a,14,14a,15,16,16a-hexadecahydrospiro[cyclopropa[e]pyrrolo[1,2-a][1,4]diazacyclopentadecine-2,3′-pyrano[2,3-c]quinolin]-6-yl]carbamate], the IC50 in experiment [1] (setting [4]) amounted to 0.019 nM. The EC50 with HCV genotype 1b replicon (setting [5]) turned out to be 2.4 nM.
